Converted amounts (≈) assume the structure as drawn. Like-named read-outs stand apart in the source and are kept apart here.
How the values were obtained:
[1] = Aqueous solubility test in 0.001N HCl; type: physicochemical; details: 0.001 N HCl aqueous buffer, simulated gastric fluid, kinetic from dmso stock; thermodynamic solubility, HPLC, pH=3, room temperature, 24 h
Procedure: (§1) The inhibitory effects of the new analogs on HUVEC proliferation were measured using a [3H]-thymidine incorporation assay. The log P values, used as an indicator of lipophilicity, were calculated using ALOGPS2.1 software. Aqueous solubility is a key physiochemical property relevant for oral absorption. We determined the solubility of each analog in 0.001 N HCl (pH=3), which represents the acidic human gastric fluid.
Aqueous solubility test. In a 1.5 mL microcentrifuge tube, 2 ul of 10 mM compound stock solution in DMSO was added to 1 mL 0.001N HCl aqueous buffer to obtain saturated solution. The resulting mixture was shaken under 600 rpm for 24 h at room temperature. Then the tube was centrifuged at 13,000 rpm for 5 min to remove the undissolved compound. 100 ul of the supernatant was injected to an Agilent 6120 LC/MS for analysis. The mass spectrometry data was collected under SIM/Scan mode. The ions of compound Exact Mass+1 and Exact Mass+23 were monitored as selected ion monitoring (SIM) for peak area integration. Solubility was calculated according to the concentration standard curve of each compound.

[2] = system: HUVEC; test: HUVEC proliferation, [3H]-thymidine incorporation assay; type: cell-based; details: Homo sapiens, mean ± SD, three independent experiments, read-out: HUVEC inhibition IC50
[3] = system: HUVEC; test: as above; type: cell-based, human; details: for Proliferation (IC50/IC50 Itra): HUVEC IC50 relative to itraconazole; for IC50: Homo sapiens, HUVEC, [3H]-thymidine incorporation, unit inferred, values in μM, read-out: Proliferation IC50
Procedure: as §1
HUVEC Culture and Proliferation Assays. HUVEC (Lonza) were grown in EGM-2 bullet kit media (Lonza) and used at passage eight or lower. The H thymidine incorporation assays were conducted as previously described. Briefly, cells were seeded on 96-well plate at a concentration of 2000 cells/well and allowed to settle overnight. Drugs were added to each well in triplicate. After 24 hours, cells were treated with 1 μCi of [3H] thymidine for 6 h. Then cells were harvested and transferred to filtermats. The scintillation were counted and IC50 were determined using Prism software (version 6.0).

[4] = target: T1, CYP3A4 (Homo sapiens, UniProt P08684); test: CYP3A4 enzyme assay (Vivid CYP3A4 Green Screening Kit); type: in vitro ADME; details: for CYP3A4 Inhibition (compared to intracozanole at 1 um): % enzyme inhibition at 1 uM drug / % enzyme inhibition at 1 uM itraconazole
T1 construct: purchased ThermoFisher P2857; host or cells: baculosomes (insect-cell microsomes, own knowledge)
Procedure: And CYP3A4 inhibition was initially determined using a cell-free fluorescence-based assay at a final concentration of 1 μM (Table 2).
CYP3A4 enzyme assay. CYP3A4 enzyme activity was tested using Vivid™ CYP3A4 Green Screening Kit (ThermoFisher, #P2857) using the manufacturer's protocol. Briefly, CYP3A4 baculosomes and drugs were incubated 10 min at 37° C. Then Vivid® Substrates were added and the fluorescence (ex/em:485/520) were read every 1 min for 60 minute.

T1 sequence (P08684 whole entry): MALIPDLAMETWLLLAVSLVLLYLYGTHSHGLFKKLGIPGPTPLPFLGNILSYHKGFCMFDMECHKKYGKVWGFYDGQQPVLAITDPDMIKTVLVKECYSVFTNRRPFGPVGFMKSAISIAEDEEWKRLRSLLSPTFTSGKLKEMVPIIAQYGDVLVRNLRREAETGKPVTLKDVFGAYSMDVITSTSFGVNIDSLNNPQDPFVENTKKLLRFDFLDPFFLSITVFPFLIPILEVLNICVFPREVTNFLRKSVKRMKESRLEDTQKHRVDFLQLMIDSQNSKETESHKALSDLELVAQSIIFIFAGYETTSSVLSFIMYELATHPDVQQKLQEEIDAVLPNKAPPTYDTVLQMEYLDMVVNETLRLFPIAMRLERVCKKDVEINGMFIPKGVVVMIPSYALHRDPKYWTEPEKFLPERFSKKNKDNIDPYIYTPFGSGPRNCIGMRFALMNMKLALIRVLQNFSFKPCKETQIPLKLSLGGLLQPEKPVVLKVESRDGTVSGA

Row | Structure (SMILES) | solubility at 24 h [1] [µg/mL] | IC50 [2] [nM] | Proliferation (IC50/IC50 Itra) [3] | CYP3A4 Inhibition (compared to intracozanole at 1 um) [4] | IC50 [3] [µM] | CYP3A4 inhibition, in words ([4]; dose response or compared with itraconazole)
1 | CCC(C)n1ncn(-c2ccc(N3CCN(c4ccc(OC[C@@H]5CO[C@@](Cn6ccnc6)(c6ccc(Cl)cc6Cl)O5)nc4)CC3)cc2)c1=O (stereo partly drawn) [Compound 2, 4-(4-(4-(6-(((2S,4R)-2-((1H-imidazol-1-yl)methyl)-2-(2,4-dichlorophenyl)-1,3-dioxolan-4-yl)methoxy)pyridin-3-yl)piperazin-1-yl)phenyl)-2-(sec-butyl)-2,4-dihydro-3H-1,2,4-triazol-3-one] | 6.48 (≈ 9.19 µM) | 468 ± 42.2 |  |  |  | 
2 | CCC(C)n1ncn(-c2ccc(N3CCN(c4ccc(OC[C@@H]5CO[C@@](Cn6ccnc6)(c6ccc(Cl)cc6Cl)O5)cc4)CC3)cn2)c1=O (stereo partly drawn) [Compound 7, 4-(5-(4-(4-(((2S,4R)-2-((1H-imidazol-1-yl)methyl)-2-(2,4-dichlorophenyl)-1,3-dioxolan-4-yl)methoxy)phenyl)piperazin-1-yl)pyridin-2-yl)-2-(sec-butyl)-2,4-dihydro-3H-1,2,4-triazol-3-one] | 41.3 (≈ 58.6 µM) | 636 ± 177 |  |  |  | 
3 | CCC(C)n1ncn(-c2ccc(N3CCN(c4ccc(OC[C@@H]5CO[C@@](Cn6nnnc6-c6ccccc6)(c6ccc(Cl)cc6Cl)O5)cc4)CC3)cc2)c1=O (stereo partly drawn) [Compound 53, 1-sec-butyl-4-(4-(4-(4-(((2S,4R)-2-(2,4-dichlorophenyl)-2-((5-phenyl-1H-tetrazol-1-yl)methyl)-1,3-dioxolan-4-yl)methoxy)phenyl)piperazin-1-yl)phenyl)-1H-1,2,4-triazol-5(4H)-one] |  |  | 0.7 | 0.22 |  | 
4 | CCC(C)n1ncn(-c2ccc(N3CCN(c4ccc(OC[C@@H]5CO[C@@](CBr)(c6ccc(Cl)cc6Cl)O5)cc4)CC3)cc2)c1=O (stereo partly drawn) [Compound 57, 4-(4-(4-(4-(((2S,4R)-2-(bromomethyl)-2-(2,4-dichlorophenyl)-1,3-dioxolan-4-yl)methoxy)phenyl)piperazin-1-yl)phenyl)-1-sec-butyl-1H-1,2,4-triazol-5(4H)-one] |  |  | 3.0 | 0.03 | 0.569 | 
5 | CCC(C)n1ncn(-c2ccc(N3CCN(c4ccc(OC[C@@H]5CO[C@@](CC)(c6ccc(Cl)cc6Cl)O5)cc4)CC3)cc2)c1=O (stereo partly drawn) [Compound 59, 1-sec-butyl-4-(4-(4-(4-(((2R,4R)-2-(2,4-dichlorophenyl)-2-ethyl-1,3-dioxolan-4-yl)methoxy)phenyl)piperazin-1-yl)phenyl)-1H-1,2,4-triazol-5(4H)-one] |  |  | 2.1 | No inhibition |  | totally lost CYP3A4 inhibition
6 | CCC(C)n1ncn(-c2ccc(N3CCN(c4ccc(OC[C@@H]5CO[C@@](Cc6ccccc6)(c6ccc(Cl)cc6Cl)O5)cc4)CC3)cc2)c1=O (stereo partly drawn) [Compound 60, 4-(4-(4-(4-(((2R,4R)-2-benzyl-2-(2,4-dichlorophenyl)-1,3-dioxolan-4-yl)methoxy)phenyl)piperazin-1-yl)phenyl)-1-sec-butyl-1H-1,2,4-triazol-5(4H)-one] |  |  | 3.0 | No inhibition | 0.513 | 
7 | CCC(C)n1ncn(-c2ccc(N3CCN(c4ccc(OC[C@@H]5CO[C@@](CC6CCCC6)(c6ccc(Cl)cc6Cl)O5)cc4)CC3)cc2)c1=O (stereo partly drawn) [Compound 61, 1-sec-butyl-4-(4-(4-(4-(((2R,4R)-2-(cyclopentylmethyl)-2-(2,4-dichlorophenyl)-1,3-dioxolan-4-yl)methoxy)phenyl)piperazin-1-yl)phenyl)-1H-1,2,4-triazol-5(4H)-one] |  |  | 3.0 | No inhibition |  | 
8 | CCC(C)n1ncn(-c2ccc(N3CCN(c4ccc(OC[C@@H]5COC(c6ccc(Cl)cc6Cl)O5)cc4)CC3)cc2)c1=O (stereo partly drawn) [Compound 62, 1-sec-butyl-4-(4-(4-(4-(((4R)-2-(2,4-dichlorophenyl)-1,3-dioxolan-4-yl)methoxy)phenyl)piperazin-1-yl)phenyl)-1H-1,2,4-triazol-5(4H)-one] |  |  | 1.9 | No inhibition |  | 
9 | CCC(C)n1ncn(-c2ccc(N3CCN(c4ccc(OC[C@@H]5CO[C@@](CN6CCOCC6)(c6ccc(Cl)cc6Cl)O5)cc4)CC3)cc2)c1=O (stereo partly drawn) [Compound 63, 1-(sec-butyl)-4-(4-(4-(4-(((2S,4R)-2-(2,4-dichlorophenyl)-2-(morpholinomethyl)-1,3-dioxolan-4-yl)methoxy)phenyl)piperazin-1-yl)phenyl)-1H-1,2,4-triazol-5(4H)-one] |  |  | 7.4 | 0.20 |  | 
10 | CCC(C)n1ncn(-c2ccc(N3CCN(c4ccc(OC[C@@H]5CO[C@@](CN(C)C)(c6ccc(Cl)cc6Cl)O5)cc4)CC3)cc2)c1=O (stereo partly drawn) [Compound 64, 1-(sec-butyl)-4-(4-(4-(4-(((2S,4R)-2-(2,4-dichlorophenyl)-2-((dimethylamino)methyl)-1,3-dioxolan-4-yl)methoxy)phenyl)piperazin-1-yl)phenyl)-1H-1,2,4-triazol-5(4H)-one] |  |  | 8.8 | No inhibition |  | 
11 | CCC(C)n1ncn(-c2ccc(N3CCN(c4ccc(OC[C@@H]5CO[C@@](CN6CCN(C)CC6)(c6ccc(Cl)cc6Cl)O5)cc4)CC3)cc2)c1=O (stereo partly drawn) [Compound 65, 1-(sec-butyl)-4-(4-(4-(4-(((2S,4R)-2-(2,4-dichlorophenyl)-2-((4-methylpiperazin-1-yl)methyl)-1,3-dioxolan-4-yl)methoxy)phenyl)piperazin-1-yl)phenyl)-1H-1,2,4-triazol-5(4H)-one] |  |  | 3.8 | 0.21 |  | 
12 | CCC(C)n1ncn(-c2ccc(N3CCN(c4ccc(OC[C@@H]5CO[C@@](CN6CCNCC6)(c6ccc(Cl)cc6Cl)O5)cc4)CC3)cc2)c1=O (stereo partly drawn) [Compound 66, 1-(sec-butyl)-4-(4-(4-(4-(((2S,4R)-2-(2,4-dichlorophenyl)-2-(piperazin-1-ylmethyl)-1,3-dioxolan-4-yl)methoxy)phenyl)piperazin-1-yl)phenyl)-1H-1,2,4-triazol-5(4H)-one] |  |  | 2.5 | 1.09 |  | 
13 | CCC(C)n1ncn(-c2ccc(N3CCN(c4ccc(OC[C@@H]5CO[C@@](Cn6cncn6)(c6ccc(Cl)cc6Cl)O5)nc4)CC3)cc2)c1=O (stereo partly drawn) [Compound 100, 4-(4-(4-(6-(((2S,4R)-2-((1H-1,2,4-triazol-1-yl)methyl)-2-(2,4-dichlorophenyl)-1,3-dioxolan-4-yl)methoxy)pyridin-3-yl)piperazin-1-yl)phenyl)-2-(sec-butyl)-2,4-dihydro-3H-1,2,4-triazol-3-one] | 0.116 (≈ 0.164 µM) | 687 ± 78.1 |  |  |  | 
14 | CCC(C)n1ncn(-c2ccc(N3CCN(c4ccc(OC[C@@H]5CO[C@@](Cn6cncn6)(c6ccc(Cl)cc6Cl)O5)cc4)CC3)nc2)c1=O (stereo partly drawn) [Compound 102, 4-(6-(4-(4-(((2S,4R)-2-((1H-1,2,4-triazol-1-yl)methyl)-2-(2,4-dichlorophenyl)-1,3-dioxolan-4-yl)methoxy)phenyl)piperazin-1-yl)pyridin-3-yl)-2-(sec-butyl)-2,4-dihydro-3H-1,2,4-triazol-3-one] | 0.0539 (≈ 0.0763 µM) | 222 ± 23.1 |  |  |  | 
15 | CCC(C)n1ncn(-c2ccc(N3CCN(c4ccc(OC[C@@H]5CO[C@@](Cn6cncn6)(c6ccc(Cl)cc6Cl)O5)cc4)CC3)cn2)c1=O (stereo partly drawn) [Compound 103, 4-(5-(4-(4-(((2S,4R)-2-((1H-1,2,4-triazol-1-yl)methyl)-2-(2,4-dichlorophenyl)-1,3-dioxolan-4-yl)methoxy)phenyl)piperazin-1-yl)pyridin-2-yl)-2-(sec-butyl)-2,4-dihydro-3H-1,2,4-triazol-3-one] | 0.496 (≈ 0.703 µM) | 188 ± 17.5 |  |  |  | 
